This is an account of results in ChEMBL document CHEMBL1201862, “PubChem BioAssay data set” (2004).

Molecules are shown by their SMILES. Calls of active or inactive are those of the source.

For assay [1], the target named is Photoreceptor-specific nuclear receptor (Homo sapiens, UniProt Q9Y5X4). It is filed as functional, cell-based.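 Note: CHO-S cells with Gal4-NCOR and VP16-NR2E3 two-hybrid luciferase reporter.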
The target in assay [2] is T1, Corticotropin-releasing factor receptor 2/Corticotropin-releasing factor-binding protein (Homo sapiens, UniProt P24387+Q13324).
T1 sequence (Q13324 whole entry): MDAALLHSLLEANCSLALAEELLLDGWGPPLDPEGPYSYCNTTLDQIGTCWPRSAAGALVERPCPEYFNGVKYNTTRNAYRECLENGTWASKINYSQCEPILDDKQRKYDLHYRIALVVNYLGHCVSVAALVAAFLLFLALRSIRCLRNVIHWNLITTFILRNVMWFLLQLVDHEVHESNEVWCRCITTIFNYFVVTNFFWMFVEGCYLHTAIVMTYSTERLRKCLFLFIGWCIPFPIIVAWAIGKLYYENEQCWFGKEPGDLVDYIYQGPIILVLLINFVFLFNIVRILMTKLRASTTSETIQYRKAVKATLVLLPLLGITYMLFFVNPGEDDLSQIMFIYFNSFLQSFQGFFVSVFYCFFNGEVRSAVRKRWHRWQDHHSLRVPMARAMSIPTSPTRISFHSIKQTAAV
T1 sequence (P24387 whole entry): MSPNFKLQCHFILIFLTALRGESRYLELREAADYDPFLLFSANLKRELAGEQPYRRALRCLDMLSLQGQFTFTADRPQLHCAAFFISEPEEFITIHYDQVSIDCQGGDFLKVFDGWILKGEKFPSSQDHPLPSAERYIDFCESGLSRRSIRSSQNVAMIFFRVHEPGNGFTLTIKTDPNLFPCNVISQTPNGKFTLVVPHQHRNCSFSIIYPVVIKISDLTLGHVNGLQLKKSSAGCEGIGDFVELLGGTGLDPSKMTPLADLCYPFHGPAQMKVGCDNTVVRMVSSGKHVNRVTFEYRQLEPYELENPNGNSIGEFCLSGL
Nature of the assay: Dose Response confirmation of uHTS hits for small molecule antagonists of the CRF-binding protein and CRF-R2 receptor complex. The class given is functional. The conditions noted are these: read-out: IC50_Mean.

Assay [3] concerns the target T1, Corticotropin-releasing factor receptor 2/Corticotropin-releasing factor-binding protein. Nature of the assay: activators of CRF receptor 2 with binding protein – uHTS hits, confirmation (AID 602473). The class given is functional. To be noted: read-out: EC50_Mean.
The nature of assay [4]: CRF-BP/CRF-R2 complex antagonists, dose response, cell-based, uHTS hits, 384-well (AID 651639). It is filed as functional, Homo sapiens. The conditions noted are these: read-out: IC50_Mean.
Assay [5] has as its target T2, Carboxy-terminal domain RNA polymerase II polypeptide A small phosphatase 1 (Homo sapiens, UniProt Q9GZU7).
T2 sequence (Q9GZU7 whole entry): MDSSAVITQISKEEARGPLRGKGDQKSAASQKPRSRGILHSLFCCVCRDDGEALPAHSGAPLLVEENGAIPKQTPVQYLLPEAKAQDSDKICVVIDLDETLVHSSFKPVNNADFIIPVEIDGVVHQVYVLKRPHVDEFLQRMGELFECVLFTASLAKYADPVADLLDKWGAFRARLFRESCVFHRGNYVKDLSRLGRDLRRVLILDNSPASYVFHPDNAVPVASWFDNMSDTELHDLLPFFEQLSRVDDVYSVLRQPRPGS
The assay can be described thus: inhibitors of CTDSP1, concentration-response testing, biochemical assay, absorbance-based, actives from ultra-high-throughput screening (AID 540297). It is filed as functional.

Assay [6] concerns the target T3, Ubiquitin-conjugating enzyme E2 N (Homo sapiens, UniProt P61088).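 Note: Dose-response confirmation in a TR-FRET assay detecting UBC13-driven polyubiquitin chain formation, inhibition measured.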
T3 sequence (P61088 whole entry): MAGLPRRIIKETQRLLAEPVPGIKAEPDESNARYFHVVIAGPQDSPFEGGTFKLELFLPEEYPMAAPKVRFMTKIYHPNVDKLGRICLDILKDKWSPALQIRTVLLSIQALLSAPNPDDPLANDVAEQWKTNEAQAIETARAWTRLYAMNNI
The class given is functional.

Assay [7] deals with T4, DNA repair protein RAD52 homolog (Homo sapiens, UniProt P43351).
T4 sequence (P43351 whole entry): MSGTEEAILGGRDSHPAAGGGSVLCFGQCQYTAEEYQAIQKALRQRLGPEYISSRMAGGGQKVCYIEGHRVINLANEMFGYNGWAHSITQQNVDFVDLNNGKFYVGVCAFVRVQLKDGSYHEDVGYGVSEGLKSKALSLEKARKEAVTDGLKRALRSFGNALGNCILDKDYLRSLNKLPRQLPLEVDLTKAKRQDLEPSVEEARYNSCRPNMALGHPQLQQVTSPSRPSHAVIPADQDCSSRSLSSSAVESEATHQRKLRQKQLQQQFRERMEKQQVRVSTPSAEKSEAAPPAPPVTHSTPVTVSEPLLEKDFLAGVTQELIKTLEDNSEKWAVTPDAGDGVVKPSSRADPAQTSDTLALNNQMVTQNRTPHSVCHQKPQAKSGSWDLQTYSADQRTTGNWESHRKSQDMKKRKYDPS
It is filed as functional, biochemical.

The subject of assay [8] is BJ. The assay can be described thus: cytotoxicity toward BJ-TERT fibroblasts, dose response, cell-based, RAS-independent, luminescence (AID 1933). It is filed as functional. To be noted: Homo sapiens.
Assay [9] relates to BJ. The assay can be described thus: cells. It is filed as functional, cell-based. The conditions noted are these: Homo sapiens.
The test system of assay [10] is BJ. The assay can be described thus: cytotoxicity toward BJ-TERT-LT-ST fibroblasts, dose response, cell-based, RAS-independent, luminescence (AID 1935).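 Note: BJ fibroblasts immortalized with TERT plus LT and ST oncogenes.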 It is filed as functional. The conditions noted are these: Homo sapiens.
A short description of assay [11]: cytotoxicity toward DRD oncogenic fibroblasts, dose response, cell-based, non-viral oncogenic, luminescence (AID 1934). The class given is functional. To be noted: Homo sapiens.
Assay [12] has as its target T5, Microphthalmia-associated transcription factor (Homo sapiens, UniProt O75030).
T5 sequence (O75030 whole entry): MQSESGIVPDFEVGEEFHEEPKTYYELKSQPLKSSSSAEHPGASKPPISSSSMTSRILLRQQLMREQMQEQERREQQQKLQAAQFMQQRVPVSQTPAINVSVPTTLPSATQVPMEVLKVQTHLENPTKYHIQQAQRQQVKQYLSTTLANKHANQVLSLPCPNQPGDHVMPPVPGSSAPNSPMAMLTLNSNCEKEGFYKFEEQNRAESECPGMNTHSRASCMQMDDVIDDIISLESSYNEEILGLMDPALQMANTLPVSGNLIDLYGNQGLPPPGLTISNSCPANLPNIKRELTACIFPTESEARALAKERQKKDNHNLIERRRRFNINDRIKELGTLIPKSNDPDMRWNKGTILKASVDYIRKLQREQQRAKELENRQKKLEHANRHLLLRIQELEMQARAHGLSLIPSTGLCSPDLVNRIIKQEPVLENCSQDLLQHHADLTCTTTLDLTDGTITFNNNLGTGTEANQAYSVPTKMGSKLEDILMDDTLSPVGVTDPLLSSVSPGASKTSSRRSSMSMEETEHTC
The assay can be described thus: TRPM1 promoter luciferase signal decrease, dose response, MITF inhibitor project, cell-based, SK-MEL-5, cherry-picked, set 3 (AID 493073).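 Note: SK-MEL-5 melanoma cells with luciferase driven by the MITF target TRPM1 promoter.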 It is filed as functional.

Assay [13] deals with T6, Replicative DNA helicase DnaB (Mycobacterium tuberculosis, UniProt P9WMR3).
T6 sequence (P9WMR3 whole entry): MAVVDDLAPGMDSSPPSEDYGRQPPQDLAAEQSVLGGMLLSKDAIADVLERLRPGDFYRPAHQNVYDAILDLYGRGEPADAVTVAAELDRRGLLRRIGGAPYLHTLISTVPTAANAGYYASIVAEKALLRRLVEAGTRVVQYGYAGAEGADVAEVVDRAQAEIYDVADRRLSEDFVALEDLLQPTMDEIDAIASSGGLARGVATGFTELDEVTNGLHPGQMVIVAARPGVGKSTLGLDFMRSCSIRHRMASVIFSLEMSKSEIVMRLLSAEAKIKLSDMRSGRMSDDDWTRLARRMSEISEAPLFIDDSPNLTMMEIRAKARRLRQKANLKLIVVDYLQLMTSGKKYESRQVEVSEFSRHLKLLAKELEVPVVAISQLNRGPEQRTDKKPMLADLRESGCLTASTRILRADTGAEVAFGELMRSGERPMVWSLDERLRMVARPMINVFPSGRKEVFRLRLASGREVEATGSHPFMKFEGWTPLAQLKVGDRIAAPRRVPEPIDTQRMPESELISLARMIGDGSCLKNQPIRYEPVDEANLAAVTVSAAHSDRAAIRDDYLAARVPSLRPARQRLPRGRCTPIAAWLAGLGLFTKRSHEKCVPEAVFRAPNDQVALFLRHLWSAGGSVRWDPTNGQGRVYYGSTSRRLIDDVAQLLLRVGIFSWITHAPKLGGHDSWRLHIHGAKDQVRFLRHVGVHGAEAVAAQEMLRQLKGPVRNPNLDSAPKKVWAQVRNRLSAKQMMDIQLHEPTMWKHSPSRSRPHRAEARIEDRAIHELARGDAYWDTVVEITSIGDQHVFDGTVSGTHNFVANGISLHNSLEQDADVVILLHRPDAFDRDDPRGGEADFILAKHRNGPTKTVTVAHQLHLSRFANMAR
The assay can be described thus: DnaB intein splicing inhibitors, dose response, biochemical, cell-free fluorescence (AID 449749). It is filed as functional.

The target of another assay is T7, Protein RecA (Mycobacterium tuberculosis, UniProt P9WHJ3).
T7 sequence (P9WHJ3 whole entry): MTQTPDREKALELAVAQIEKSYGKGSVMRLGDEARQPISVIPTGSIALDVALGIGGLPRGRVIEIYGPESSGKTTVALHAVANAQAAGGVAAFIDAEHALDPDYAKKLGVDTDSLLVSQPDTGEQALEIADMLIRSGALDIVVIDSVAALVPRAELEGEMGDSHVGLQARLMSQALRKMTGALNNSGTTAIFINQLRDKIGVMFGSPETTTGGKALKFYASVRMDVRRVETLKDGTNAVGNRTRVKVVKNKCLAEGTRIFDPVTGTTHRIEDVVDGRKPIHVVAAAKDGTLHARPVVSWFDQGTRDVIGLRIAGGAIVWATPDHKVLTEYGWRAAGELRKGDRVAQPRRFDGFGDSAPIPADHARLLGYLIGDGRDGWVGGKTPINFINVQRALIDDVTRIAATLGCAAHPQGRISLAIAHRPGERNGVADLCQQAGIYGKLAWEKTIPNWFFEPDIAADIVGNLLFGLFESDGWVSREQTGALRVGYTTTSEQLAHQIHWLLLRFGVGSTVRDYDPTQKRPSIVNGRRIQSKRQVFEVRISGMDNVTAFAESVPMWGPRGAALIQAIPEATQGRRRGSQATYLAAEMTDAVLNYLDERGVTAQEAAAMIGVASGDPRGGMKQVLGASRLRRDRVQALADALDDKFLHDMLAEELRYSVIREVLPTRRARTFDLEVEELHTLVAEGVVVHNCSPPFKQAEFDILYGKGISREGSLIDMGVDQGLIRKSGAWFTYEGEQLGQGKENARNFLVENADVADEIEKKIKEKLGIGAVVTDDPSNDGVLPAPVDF
Nature of the assay: Fluorescence Cell-Free Homogeneous Dose Retest to Identify Inhibitors of RecA-Intein Splicing Activity. [Related pubchem assays (depositor defined):AID2097, AID2223, AID489010, AID492950]. The class given is functional.

Another assay has as its system A-375. The assay can be described thus: MITF: Counter assay: A375 proliferation Measured in Cell-Based System Using Plate Reader - 2084-03_Inhibitor_Dose_DryPowder_Activity. [Related pubchem assays (depositor defined):AID488944]. It is filed as functional. To be noted: Homo sapiens.

Sequence of Photoreceptor-specific nuclear receptor (Q9Y5X4 whole entry, the tested form may be a part): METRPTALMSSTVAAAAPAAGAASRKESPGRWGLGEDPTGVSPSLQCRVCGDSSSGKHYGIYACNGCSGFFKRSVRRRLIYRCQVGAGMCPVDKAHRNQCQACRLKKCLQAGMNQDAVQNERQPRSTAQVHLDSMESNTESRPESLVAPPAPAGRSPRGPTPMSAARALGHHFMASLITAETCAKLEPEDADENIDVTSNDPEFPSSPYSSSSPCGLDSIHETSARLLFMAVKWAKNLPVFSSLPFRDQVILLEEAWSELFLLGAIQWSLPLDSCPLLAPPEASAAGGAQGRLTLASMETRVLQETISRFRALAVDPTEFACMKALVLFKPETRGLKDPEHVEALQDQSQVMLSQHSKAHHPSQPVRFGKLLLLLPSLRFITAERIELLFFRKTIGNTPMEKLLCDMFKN

For `COc1ccc(C)cc1NC(=O)NC1CC(=O)N(c2ccc3c(c2)OCCO3)C1` (stereo unspecified), in assay [1], the IC50 is 3.25 µM (active).
With `Fc1ccccc1CSc1nnnn1-c1ccc2c(c1)OCO2`, the values for the IC50 in assay [2] and in [4] were 15.6 µM (active) and > 20 µM (inactive), respectively. In assay [3], the EC50 was > 53 µM (inactive).
The like results for `O=C(O)C1OC1(c1ccccc1Cl)c1ccccc1Cl` (stereo unspecified) were, in that order, 23.4 µM (active), > 20 µM (inactive) and > 53 µM (inactive).
The like results for `COc1ccc(S(=O)(=O)N2CCCCCC2)cc1C(=O)N(C)Cc1ccc(C(C)(C)C)cc1` were, in that order, 14.6 µM (active), 13.5 µM (active) and > 53 µM (inactive).
As for `CCOC(=O)c1cc2c(=O)n3cccc(C)c3nc2n(Cc2ccco2)/c1=N/C(=O)c1cccnc1`, the IC50 in [5] is 18.8 µM (active).
Regarding `CN(C(=O)Oc1ccc(C(=O)c2ccc(Cl)cc2)cc1)c1ccccc1`, the IC50 in assay [2] was < 0.368 µM (active); in assay [4], > 20 µM (inactive). Besides, the EC50 in assay [3] is > 53 µM (inactive).
With `COC(=O)c1cc(NC(=O)Cc2cccs2)cc(C(=O)OC)c1`, in assay [5], the IC50 is 3.84 µM (active).
On to `O=C(CNC(=O)c1cccc(OC(F)F)c1)OCc1cc(=O)n2cc(Br)ccc2n1`, for which the IC50 in [5] was 7.09 µM (active).
`O=C(COc1cc(Cl)ccc1Cl)N1CCNC1=O`: the IC50 in [2] was 27.4 µM (active); in [4], 8.63 µM (active). In addition, the EC50 in assay [3] is > 53 µM (inactive).
As a reminder, the AC50 is the concentration giving half of the maximal activity seen. As to `CC[C@@H](C)[C@@H]1CN([C@@H](CN2CCC[C@H]2CN2C(N)=NC[C@H]2CC(C)C)C(C)C)C(=N)N1CCc1ccc(Cl)c(Cl)c1`, the values for the IC50 in [6], in [2] and in assay [4] were > 20 µM (inactive), 2.82 µM (active) and 7.1 µM (active), respectively. Besides, the EC50 in [3] was 42.3 µM (active). In assay [7], the AC50 was 17.3 µM (active).
`COc1ccc(N(Cc2cc(O)nc3ccccc23)C(=O)CCl)cc1`: the EC50 in the assay on BJ [8] was 1.95 µM (active); in the assay on BJ [9], 5.45 µM (inconclusive); in the assay on BJ [10], 4.68 µM (active); in [11], 4.96 µM (inconclusive); at Protein RecA, 1.59 µM (active). Further, the AC50 in assay [12] was 10.9 µM (active); in assay [13], 10.3 µM (active); in the assay on A-375 it was 27.1 µM (active).
`COCCCNC(=S)N1CCN(c2nc(-c3ccc(Cl)cc3)cs2)CC1`: the IC50 in [1] was 4.25 µM (active).
`CCOc1ccc(-n2c(SCC(=O)NCc3ccco3)nc3c4ccccc4nc-3c2O)cc1`: the IC50 is 3.76 µM (active) in [2] and 15 µM (active) in assay [4]. The EC50 in assay [3] is > 53 µM (inactive).
